Assay results as given in the supplement of paper PMC10307832.

Assays:
Experiment in all cases: relative viability (nuclei count vs DMSO), 5 days (fraction); higher = more cells survive
[1] = compound: Cn1cc(-c2cnn3c(N)c(Br)c([C@@H]4CCCNC4)nc23)cn1 + CC(=O)c1c(C)c2cnc(Nc3ccc(N4CCNCC4)cn3)nc2n(C2CCCC2)c1=O [Palbociclib] (partner 0.5 µM)
Outline: (§1)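 Relative viability was taken as the ratio of nuclei in treated wells to nuclei in vehicle wells. Lung cancer cell lines in 1536-well plates received compounds by pin tool one day after seeding, either one drug alone or a fixed anchor-drug dose plus five library-drug doses (not always all listed) in √10 steps. Nuclei were counted on 4× images after 5 days of treatment, and values are medians of duplicate plates.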

[2] = compound: Cn1cc(-c2cnn3c(N)c(Br)c([C@@H]4CCCNC4)nc23)cn1 + Cc1nc(Nc2ncc(C(=O)Nc3c(C)cccc3Cl)s2)cc(N2CCN(CCO)CC2)n1 [Dasatinib] (partner 0.075 µM)
Outline: as §1

[3] = compound: Cn1cc(-c2cnn3c(N)c(Br)c([C@@H]4CCCNC4)nc23)cn1 + CC(C)C[C@H](NC(=O)[C@H](Cc1ccccc1)NC(=O)c1cnccn1)B(O)O [Bortezomib] (partner 0.002 µM)
Outline: as §1

[4] = compound: Cn1cc(-c2cnn3c(N)c(Br)c([C@@H]4CCCNC4)nc23)cn1 + CCNC(=O)c1noc(-c2cc(C(C)C)c(O)cc2O)c1-c1ccc(CN2CCOCC2)cc1 [Luminespib] (partner 0.01 µM)
Outline: as §1

| Cell Line | relative viability ([1]; first compound 0.05 µM) | relative viability ([1]; first compound 0.1581 µM) | relative viability ([1]; first compound 0.5 µM) | relative viability ([1]; first compound 1.581 µM) | relative viability ([1]; first compound 5 µM) | relative viability ([2]; first compound 0.1581 µM) | relative viability ([2]; first compound 0.5 µM) | relative viability ([2]; first compound 1.581 µM) | relative viability ([2]; first compound 5 µM) | relative viability ([3]; first compound 0.05 µM) | relative viability ([3]; first compound 0.1581 µM) | relative viability ([3]; first compound 0.5 µM) | relative viability ([3]; first compound 1.581 µM) | relative viability ([3]; first compound 5 µM) | relative viability ([2]; first compound 0.05 µM) | relative viability ([4]; first compound 0.05 µM) | relative viability ([4]; first compound 0.1581 µM) | relative viability ([4]; first compound 0.5 µM) | relative viability ([4]; first compound 1.581 µM) | relative viability ([4]; first compound 5 µM) |
| --- | --- | --- | --- | --- | --- | --- | --- | --- | --- | --- | --- | --- | --- | --- | --- | --- | --- | --- | --- | --- |
| HCC-78 | 0.445 | 0.391 | 0.532 | 0.439 | 0.488 | 0.384 | 0.388 | 0.398 | 0.295 | 0.482 | 0.567 | 0.556 | 0.511 | 0.39 | – | – | – | – | – | – |
| NCI-H2085 | 0.46 | 0.521 | 0.51 | 0.471 | 0.385 | 0.235 | 0.229 | 0.24 | 0.203 | 1.12 | 1.13 | 1.08 | 0.813 | 0.909 | 0.239 | 0.4 | 0.477 | 0.461 | 0.417 | 0.339 |
| PC-14 | 0.614 | 0.358 | 0.269 | 0.156 | 0.121 | 0.203 | 0.196 | 0.113 | 0.063 | 0.936 | 0.971 | 0.83 | 0.549 | 0.355 | 0.272 | 0.179 | – | 0.179 | 0.159 | 0.165 |
| NCI-H2342 | 0.531 | 0.55 | 0.446 | 0.56 | 0.507 | 0.3 | 0.345 | 0.336 | 0.28 | – | – | – | – | – | 0.31 | 0.764 | 0.88 | 0.773 | 0.708 | 0.615 |
| A-427 | 0.51 | 0.503 | 0.508 | 0.504 | 0.411 | 0.816 | 0.633 | 0.583 | 0.358 | 1 | 0.937 | 1.2 | 0.961 | 0.743 | 0.863 | 1.36 | 0.923 | 0.889 | 0.571 | 0.403 |
| H3255 | 0.314 | 0.342 | 0.323 | 0.291 | 0.277 | 0.379 | 0.39 | 0.446 | 0.267 | 0.676 | 0.787 | 0.854 | 0.792 | 0.441 | 0.313 | 0.882 | 0.914 | 1.07 | 0.938 | 0.473 |
| HCC-44 | 0.876 | 0.957 | 0.978 | 0.964 | 0.952 | – | – | – | – | 0.91 | 1.11 | 0.923 | 0.882 | 0.796 | – | – | 0.995 | 1.29 | 0.557 | 0.771 |
| NCI-H1734 | 0.387 | 0.347 | 0.317 | 0.323 | 0.295 | 0.506 | 0.435 | 0.345 | 0.338 | 1.02 | 1.13 | 0.798 | 0.865 | 0.746 | 0.469 | 0.197 | 0.185 | 0.201 | 0.178 | 0.149 |
| NCI-H2228 | 1.03 | 0.872 | 0.541 | 0.393 | 0.252 | 0.66 | 0.459 | 0.294 | 0.241 | 1.1 | 1.1 | 0.943 | 0.705 | 0.521 | 0.572 | 0.138 | 0.132 | 0.212 | 0.124 | 0.112 |
| ABC-1 | – | 1.06 | 0.872 | 0.452 | 0.718 | 0.561 | 0.497 | 0.484 | 0.301 | 0.364 | 0.284 | 0.298 | 0.331 | 0.287 | 0.479 | 0.439 | 0.338 | 0.484 | 0.361 | 0.265 |
| COR-L23 | 0.345 | 0.346 | 0.356 | 0.231 | 0.183 | 0.451 | 0.441 | 0.343 | 0.2 | 1.08 | 1.23 | 0.913 | 0.646 | 0.46 | 0.495 | 0.775 | 0.745 | 0.366 | 0.24 | 0.119 |
| NCI-H358 | 0.151 | 0.134 | 0.128 | 0.104 | 0.111 | 0.155 | 0.156 | 0.167 | 0.148 | – | – | – | – | – | 0.131 | 0.546 | 0.281 | 0.437 | 0.261 | 0.152 |
| EBC-1 | – | – | – | – | – | – | – | – | – | 0.609 | 0.599 | 0.445 | 0.461 | 0.394 | – | – | – | – | – | – |
| NCI-H596 | – | – | – | – | – | 0.549 | 0.552 | 0.545 | 0.589 | 1.06 | 0.964 | 0.9 | 0.804 | 1.02 | 0.668 | 0.992 | 0.971 | 0.965 | 0.894 | 0.716 |
| SK-MES-1 | 0.315 | 0.327 | 0.308 | 0.273 | 0.238 | 0.308 | 0.236 | 0.231 | 0.118 | – | – | – | – | – | 0.359 | 0.651 | 0.406 | 0.419 | 0.24 | 0.187 |
| NCI-H1703 | – | – | – | – | – | – | – | – | – | 0.231 | 0.261 | 0.19 | 0.132 | 0.138 | – | – | – | – | – | – |
| NCI-H1944 | 0.31 | 0.343 | 0.282 | 0.261 | 0.261 | 0.206 | 0.197 | 0.192 | 0.179 | – | – | – | – | – | 0.23 | 0.705 | 0.671 | 0.706 | 0.635 | 0.344 |
| NCI-H1563 | – | – | – | – | – | 0.451 | 0.503 | 0.436 | 0.412 | 0.887 | 0.74 | 0.742 | 0.805 | 0.706 | 0.418 | 0.62 | 0.578 | 0.51 | 0.55 | 0.37 |
| NCI-H1395 | 0.628 | 0.492 | 0.567 | 0.421 | 0.419 | 0.463 | 0.399 | 0.368 | 0.351 | – | – | – | – | – | 0.397 | 0.762 | 0.536 | 0.687 | 0.349 | 0.379 |
| NCI-H2170 | 0.402 | 0.407 | 0.366 | 0.345 | 0.397 | 0.541 | 0.524 | 0.551 | 0.446 | – | – | – | – | – | 0.713 | 0.837 | 0.561 | 0.799 | 0.931 | 0.422 |
